Measured values taken from patent EP4813970A1, “L-SERINE HAVING REDUCED HEAVY METAL AMOUNT, PHARMACEUTICAL COMPOSITION THEREOF, PREPARATION METHOD THEREFOR, AND USE THEREOF” (priority 2023, dated 2025).
Read-outs that look alike come from different tables or passages of the source.

Legend:
HT22 cells = assay: Mitochondrial membrane potential by JC-1 staining after DMNQ damage; assay type: cell-based
Experimental: HT22 cells were cultured under 37°C and 5% CO2 conditions using DMEM medium containing 10% FBS, 100 unit/mL penicillin, and 100 µg/mL streptomycin. […] After checking the condition of the cells, 5 µM JC-1 was added to the medium and the cells were stained for 30 minutes under 37°C and 5% CO2 conditions, treated with 0.25% trypsin-EDTA and the cells were collected in an e-tube, washed twice with PBS, and analyzed with Attune NxT. The effect of L-serine, which contains class 1 heavy metals, on mitochondria, which affects both neurological diseases and metabolic diseases, was confirmed depending on the concentration of class 1 heavy metals. DMNQ causes oxidative stress and excessive production of ROS, which induces mitochondrial membrane potential depolarization, thereby resulting in mitochondrial dysfunction and apoptosis. In mitochondria, an electrochemical proton gradient is created through the mitochondrial membrane, which produces ATP, and when mitochondria are damaged and apoptosis occurs, mitochondrial permeability pores are opened and thus mitochondrial transmembrane potential decreases (membrane potential depolarization). Mitochondrial membrane potential difference, which is an indicator of apoptosis, was measured through JC-1 staining. JC-1 enters the mitochondria in normal cells due to changes in mitochondrial membrane potential and forms a multicomplex, thereby giving it a red color, whereas when apoptosis occurs due to depolarization of the mitochondrial membrane potential, JC-1 remains in the cytoplasm and gives it a green color. Four hours before DMNQ treatment, neurons were treated with unpurified L-serine, primary purified L-serine, and secondary purified L-serine, and then treating with DMNQ for 2 hours and 30 minutes, the degree of protection of neurons was measured by measuring the mitochondrial membrane potential difference through JC-1 staining.

[1] = tested on: patients with autism spectrum disorder; assay: Phase 2 clinical trial of L-serine in children under 11 years of age; conditions: 400 mg/kg for 24 weeks
[2] = tested on: patients with hereditary sensory and autonomic neuropathy type 1 (HSAN1); conditions: cited from earlier work
[3] = tested on: patients with amyotrophic lateral sclerosis (ALS); conditions: cited from earlier work
[4] = tested on: fetuses with 3-PGDH deficiency; conditions: cited from earlier work
primary neurons = assay: Multi-electrode array (MEA) of neuronal electrical activity under DMNQ neurotoxicity; assay type: cell-based, mouse; conditions: FIG. 3
Experimental: After adding an equal volume of culture medium, cells were separated by a mechanical method using a pipet, and single cells were separated using a 40 µm cell strainer. After centrifugation at 2,000 rpm for 5 minutes, the supernatant was removed and resuspended in culture medium. […] A 50% PEI solution, which was prepared by mixing borate buffer and PEI in a 1:1 ratio, was diluted with a 0.1% PEI solution using borate buffer and then filtered using a 0.22 µm filter. […] Laminin stock stored at -20°C was thawed at 4°C and then diluted in serum-free medium (20 ng/mL). 40 µL of 0.1% PEI was added to each well of a 24-well MEA plate, and then the 24-well MEA plate was placed in a cell incubator at 37°C and 5% CO2 for 60 minutes. After washing the 24-well MEA plate three times with sterile DW, the laminin solution was added 50 µL per well and placed overnight in a cell incubator at 37°C and 5% CO2. After removing the laminin solution from the 24-well MEA plate, the prepared primary neurons were seeded at a concentration of 1.0 × 10^5 cells/well. […] Neuronal electrical activity was measured using the Maestro Edge system every 30 minutes for 15 minutes, and the same amount of secondary purified L-serine was pretreated for 4 hours based on 0.1 mM unpurified L-serine. After drug pretreatment for 4 hours, neuronal electrical activity was measured 4 times at 30 minute intervals during 2-hour treatment with 20 µM DMNQ, and the data was analyzed using a neural metric tool and an axis metric plotting tool. […] For the MEA, neurons were cultured on electrodes for several weeks to form a network and then the electrical signals, that is action potentials, generated from the neurons were measured. […] The primary neuronal culture was cultured in 24-well MEA plates for approximately 15 days, and when electrical signals were passed through sporadic bursts and activated into synchronous network bursts, test substances were treated at concentrations not affecting cell viability, and action potentials were measured and compared.

[5] = tested on: 5XFAD (Tg6799; five familial mutation); assay: Survival on 9-month administration in an Alzheimer's disease animal model; assay type: in vivo, mice; conditions: 500 mg/kg orally 5 days a week for 9 months, 3 to 12 months of age
Experimental: In order to measure the extent to which the class 1 heavy metal content in L-serine affects neurons when taken over a long period of time, long-term administration of L-serine for 9 months from the early stage of the disease (3 months of age) to 12 months of age was conducted using 5XFAD (Tg6799; five familial mutation), which is an animal model of Alzheimer's disease, and the effect of the drug on animal viability was confirmed. Specifically, WT & 5XFAD mice (purchased from The Jackson Lab) administered with saline and WT & 5XFAD mice administered with L-serine were composed of 12 mice per group. Saline and 500 mg/kg of unpurified L-serine and secondary purified L-serine were orally administered 5 days a week for 9 months, and after administration, the survival rate (%) was measured through daily observation of mice and designated as survival rate.

[6] = oral twice a day, maximum dose of 15 g/day for 6 months
[7] = 4 hours pretreatment (based on 0.1 mM unpurified L-serine), then 2-hour 20 µM DMNQ

N[C@@H](CO)C(=O)O [L-serine]
mitochondrial damage (green) (HT22 cells; 0.5 mM, pre-treated 4 hours, then 20 µM DMNQ): 32.1±1.52%
mitochondrial damage (green) (HT22 cells; 1 mM, pre-treated 4 hours, then 20 µM DMNQ): 18.7±11.1%
mitochondrial damage (green) (HT22 cells; 2.5 mM, pre-treated 4 hours, then 20 µM DMNQ): 1.5±0.23%
side effects [1]: without any unusual side effects
treatment efficiency [1]: about 40%
safety and Charcot-Marie-Tooth Neuropathy Score (CMTNS) ([2]; 400 mg/kg/day for up to 2 years): effects of improving safety and Charcot-Marie-Tooth Neuropathy Score (CMTNS) were confirmed
1-deoxySL (dSL) ([2]; oral, up to 400 mg/kg/day for 10 and 52 weeks): reduced
progression of the patients' disease [3, 6]: showed the effect of delaying the progression of the patients' disease
safety [3, 6]: safe
safety ([3]; phase 2 clinical trials, up to 15 g twice a day for 6 months): shown to be safe
brain growth in fetuses ([4]; maternal supply of L-serine during pregnancy): shown to improve brain growth
neurological symptoms ([4]; postnatal children (birth to 4 years old)): shown to prevent neurological symptoms
adverse reactions ([4]; pregnant women, fetuses, and newborns): no adverse reactions were observed

COC1=C(OC)C(=O)c2ccccc2C1=O [DMNQ]
active electrodes (spikes and network bursts) (primary neurons; 20 µM DMNQ alone, compared to the control group): significantly reduced
mitochondrial damage (green) (HT22 cells; 20 µM DMNQ alone): 81.4±4.2%

N[C@@H](CO)C(=O)O [secondary purified L-serine, L-serine]
active electrodes (spikes and network bursts) (primary neurons; [7]): active electrodes in a state without DMNQ treatment were maintained
survival rate [5]: 80%

N[C@@H](CO)C(=O)O [unpurified L-serine, L-serine]
active electrodes (spikes and network bursts) (primary neurons; [7]): the effect was not distinct
survival rate [5]: 58%
